Assay results as given in patent US9737517B2, “Pharmaceutical use of hexahydro-dibenzo[a,g]quinolizine compounds” (SHANGHAI INSTITUTE OF MATERIA MEDICA, CHINESE ACADEMY OF …, priority 2013, dated 2017).

Tests used:
[1] = target: T1, α1A-AR (Homo sapiens, UniProt P35348); experiment: Calcium mobilization (Fluo-4) antagonism of phenylephrine in HEK293 cells expressing α1A-AR/Gα16; format: cell-based; conditions: for IC50: HEK293 α1A-AR/Gα16, calcium mobilization, phenylephrine 30 nM; for α1B/α1A: ratio of cell IC50 values, calcium mobilization
T1 construct: expressed in transfected cells; host or cells: HEK293
T1 sequence (P35348 1-466): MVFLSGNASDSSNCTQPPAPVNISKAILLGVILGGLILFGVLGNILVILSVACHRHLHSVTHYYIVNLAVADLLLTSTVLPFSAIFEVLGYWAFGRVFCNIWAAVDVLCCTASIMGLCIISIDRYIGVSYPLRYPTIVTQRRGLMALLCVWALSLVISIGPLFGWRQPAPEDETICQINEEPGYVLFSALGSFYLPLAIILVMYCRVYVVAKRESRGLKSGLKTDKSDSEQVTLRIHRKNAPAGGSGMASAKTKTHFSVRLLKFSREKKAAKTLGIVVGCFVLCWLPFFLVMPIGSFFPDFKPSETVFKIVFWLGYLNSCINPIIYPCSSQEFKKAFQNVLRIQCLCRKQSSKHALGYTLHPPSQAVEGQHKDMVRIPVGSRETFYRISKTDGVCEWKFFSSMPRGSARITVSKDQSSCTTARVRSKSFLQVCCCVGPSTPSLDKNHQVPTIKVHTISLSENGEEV
Description: (§1) HEK293 cells stably expressing α1A-AR/Gα16, α1B-AR/Gα16, α1D-AR/Gα16 were seeded in a 96-well plate, and cultured for 24 hours. Then the medium was removed and 40 μL Hank's balanced salt solution (HBSS: containing 5.4 mM KCl, 0.3 mM Na2HPO4, 0.4 mM KH2PO4, 4.2 mM NaHCO3, 1.3 mM CaCl2, 0.5 mM MgCl2, 0.6 mM MgSO4, 137 mM NaCl, 5.6 mM D-glucose, and 250 μM sulfinpyrazone, pH 7.4) containing 2 μM Fluo-4 AM was added into each well, and incubated at 37° C. for 45 min. Dye was removed and 50 μL of HBSS containing either test compound or 1% DMSO (negative control) was added. After incubation at room temperature for 10 min, Flex Station 3 microplate reader was used to read the value. At specified time points, 25 μL of agonist (phenylephrine, final concentration 30 nM) was dispensed into the well automatically using the reader and fluorescence intensity change of dye caused by intracellular calcium concentration change was detected at an excitation wavelength of 485 nm and an emission wavelength of 525 nm.
(§2) After incubation with different drugs, the reaction rate of cells to 1-AR agonist phenylephrine was calculated as follows: Reaction rate %=(D−B)/(S−B)*100%;
(§3) The reaction rate of the same drug at different doses was tested using GraphPad Prism software by non-linear regression analysis, and the dose-response curve was obtained and IC50 values was measured. Data were obtained from three separate experiments, and each experiment included three duplicate wells.

[2] = target: T2, α1B-AR (Homo sapiens, UniProt P35368); experiment: Calcium mobilization (Fluo-4) antagonism of phenylephrine in HEK293 cells expressing α1B-AR/Gα16; format: cell-based; conditions: phenylephrine 30 nM
T2 construct: expressed in transfected cells; host or cells: HEK293
T2 sequence (P35368 1-520): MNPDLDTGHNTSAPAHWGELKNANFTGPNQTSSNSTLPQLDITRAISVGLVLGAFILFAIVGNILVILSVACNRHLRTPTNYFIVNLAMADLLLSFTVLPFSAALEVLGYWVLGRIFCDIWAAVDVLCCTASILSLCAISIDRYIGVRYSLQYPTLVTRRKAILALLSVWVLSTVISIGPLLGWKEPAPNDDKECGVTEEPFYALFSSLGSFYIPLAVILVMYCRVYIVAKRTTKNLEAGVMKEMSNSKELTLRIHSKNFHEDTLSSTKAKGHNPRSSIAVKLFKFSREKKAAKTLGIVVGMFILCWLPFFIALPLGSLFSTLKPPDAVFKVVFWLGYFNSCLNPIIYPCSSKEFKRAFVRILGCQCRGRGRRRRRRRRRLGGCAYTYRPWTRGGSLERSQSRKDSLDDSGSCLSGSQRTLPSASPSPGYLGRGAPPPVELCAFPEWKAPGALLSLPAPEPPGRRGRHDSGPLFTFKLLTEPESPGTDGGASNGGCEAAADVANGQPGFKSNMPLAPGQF
Description: as §1, §2, §3

[3] = target: T3, α1D-AR (Homo sapiens, UniProt P25100); experiment: Calcium mobilization (Fluo-4) antagonism of phenylephrine in HEK293 cells expressing α1D-AR/Gα16; format: cell-based; conditions: phenylephrine 30 nM
T3 construct: expressed in transfected cells; host or cells: HEK293
T3 sequence (P25100 1-572): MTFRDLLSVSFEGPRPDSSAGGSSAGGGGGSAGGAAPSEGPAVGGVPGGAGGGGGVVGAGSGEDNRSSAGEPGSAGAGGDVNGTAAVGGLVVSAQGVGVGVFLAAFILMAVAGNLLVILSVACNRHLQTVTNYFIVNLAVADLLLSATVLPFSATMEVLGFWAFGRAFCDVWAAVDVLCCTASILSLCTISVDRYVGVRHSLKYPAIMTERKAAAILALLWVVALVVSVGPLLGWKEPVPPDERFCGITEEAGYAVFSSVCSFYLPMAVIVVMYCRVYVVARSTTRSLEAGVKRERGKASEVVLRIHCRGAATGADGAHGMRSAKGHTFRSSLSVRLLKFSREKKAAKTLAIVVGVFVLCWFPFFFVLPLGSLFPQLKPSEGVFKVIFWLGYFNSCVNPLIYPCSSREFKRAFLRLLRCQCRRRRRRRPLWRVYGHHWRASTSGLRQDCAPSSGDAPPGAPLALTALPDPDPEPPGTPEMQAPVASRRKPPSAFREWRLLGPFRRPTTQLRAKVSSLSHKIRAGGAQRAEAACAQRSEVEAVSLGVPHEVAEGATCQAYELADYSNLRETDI
Description: as §1, §2, §3

[4] = target: T1, α1A-AR; experiment: Tag-lite receptor binding assay, HEK293 cells expressing SNAP-α1A-AR
Text: (§4) Tag-lite assay was used to study receptor binding activity. Tag-lite assay was a combination of SNAP-Tag and HTRF technology, and was used to analyze surface receptors on live cell. SNAPs were small tag fusion proteins which could irreversibly, specifically and covalently bind to substrates via benzylmethyl, and the substrates were benzylmethyl guanine and benzylmethyl cytosine. Substrates and various dyes formed derivatives, and through covalent reaction, the dye was labeled onto SANPs. Plasmid was constructed using pSNAP and α1-AR encoding gene. After transfection into cells, N-terminal fusion protein of SNAP and α1-AR was expressed. The substrate and HTRF fluorescent dye (donor compound Lumi4-Tb) formed a derivative which reacted with SANP-α1-AR fusion protein so that Tb was labeled onto α1-AR. After adding acceptor fluorescent dye-labeled ligand, the receptor and ligand binding experiment was performed.
(§5) HEK293 cells stably expressing SNAP-α1A-AR, SNAP-α1B-AR, SNAP-α1D-AR were seeded in 3 cm dishes, and cultured for 24 hours. 100 nM Tag-lite SNAP Lumi4Tb was added and incubated for 1 h in an incubator. Cells were detached and washed with a labeling buffer for 4 times, and then was added into a 384-well plate in a volume of 10 μL per well. […] After incubation at room temperature for 1 hour, fluorescence intensity changes caused by cell receptor and ligand changes were detected using 665 nm (acceptor) and 620 nm (donor) at same time.
(§6) After incubation with different drugs, the reaction rate of cells to 1-AR fluorescein-labeled known ligand was calculated as follows: Reaction rate %=(D−B)/(S−B)*100%
(§7) The reaction rate of the same drug at different doses was tested using GraphPad Prism software by non-linear regression analysis, and the dose-response curve was obtained and Ki values was measured. Data were obtained from three separate experiments, and each experiment includes three duplicate wells.

[5] = target: T2, α1B-AR; experiment: Tag-lite receptor binding assay, HEK293 cells expressing SNAP-α1B-AR
Text: as §4, §5, §6, §7

[6] = test system: urethra smooth muscle; experiment: In vitro urethra smooth muscle experiment (norepinephrine-induced contraction); design: species or system Wistar rats; Urethra inhibition rate (%): concentration or dose not given beside the values; conditions: for IC50: isolated rat prostatic urethra, norepinephrine 3×10^−4 mol/L; for Urethra inhibition rate (%): isolated rat urethra, norepinephrine-induced contraction; for Aorta/Urethra: selectivity ratio of IC50 values, isolated rat tissues
Description: Healthy male Wistar rats were hit head to cause faint. The abdominal cavity and the pubic symphysis was quickly cut so as to quickly remove the prostatic urethra, which was immediately placed into a dish filled with 4° C. Kerbs-Henseleit solution (K-H solution). The surrounding tissue were carefully separated, and muscle strips about 3-5 mm were obtained, and the lower end was fixed onto a 20 mL of thermostatic bath and the upper end was connected onto a pressure transducer. Nutrient liquid was K-H solution, and carbogen (95% oxygen and 5% carbon dioxide) was aerated, and the bath temperature was 37° C., and resting tension applied was 0.5 g. The nutrient liquid was replaced every 6-8 mins. Until baseline stabilized, norepinephrine was added with a final concentration of 3×10^−4 mol/L in bath tube. When the contraction curve reached the highest point, it was rinsed immediately to recover to baseline levels. When baseline was stabilized, test drug with different concentrations was added respectively, and incubated 3-5 mins. 60 μL 1×10^−1 M norepinephrine was added with a final concentration of 3×10^−4 mol/L in bath tube, and the contraction curve was recorded.

[7] = test system: vascular smooth muscle (thoracic aorta); experiment: In vitro vascular smooth muscle experiment (norepinephrine-induced contraction of thoracic aorta rings); design: species or system Wistar rats; conditions: isolated rat thoracic aorta rings, norepinephrine 10^−7 mol/L
Description: Healthy male Wistar rats were hit head to cause faint. The abdominal cavity was quickly cut, and the thoracic aorta was taken out. The attached tissue was separated and cut into 2-3 mm vascular rings. The experiment was carried out in the same manner as in urethral smooth muscle experiment. The resting tension applied was 1 g, and when baseline was stabilized, norepinephrine was added with a final concentration of 10^−7 mol/L in bath tube. When the contraction curve reached the highest point, rinse was performed immediately to recover to baseline levels. When baseline was stabilized, test drug with different concentrations was added respectively, and incubated 3-5 mins. 20 μL 1×10^−4 M norepinephrine was added with a final concentration of 10^−7 mol/L in bath tube, and contraction curve was recorded.

COc1cc2c(cc1OC)CN1CCc3cc(OC)c(OC)cc3C1C2 (centres unmarked) [DC037001]
IC50 [1]: 123 nM
α1B/α1A [1]: 1.4
IC50 [2]: 174 nM
IC50 [3]: 8710 nM

COc1cc2c(cc1OC)[C@@H](C)N1CCc3cc(OC)c(OC)cc3[C@@H]1C2 [DC037002]
IC50 [1]: 502 nM
α1B/α1A [1]: 34.2
IC50 [2]: 17200 nM
IC50 [3]: 2520 nM

COc1cc2c(cc1OC)CN1CCc3cc(OC)c(OC)cc3[C@@H]1C2 [DC037003]
IC50 [1]: 91.3 nM
α1B/α1A [1]: 2731
IC50 [2]: 249000 nM
IC50 [3]: 2480 nM

COc1ccc2c(c1)CCN1Cc3cc(OC)c(OC)cc3C[C@@H]21 [DC037004]
IC50 [1]: 93.9 nM
α1B/α1A [1]: 2.0
IC50 [2]: 189 nM
IC50 [3]: 422 nM

COc1cc2c(cc1OC)[C@@H]1Cc3cc4c(cc3CN1CC2)OCO4 [DC037005]
IC50 [1]: 160 nM
α1B/α1A [1]: 10.3
IC50 [2]: 1650 nM
IC50 [3]: 2950 nM

COc1ccc(OC)c2c1C[C@H]1c3cc4c(cc3CCN1C2)OCO4 [DC037007]
IC50 [1]: 969 nM
α1B/α1A [1]: 13.4
IC50 [2]: 13000 nM
IC50 [3]: 75.8 nM

COc1cc2c(cc1OC)C1Cc3cc4c(cc3CN1CC2)OCO4 (centres unmarked) [DC037008]
IC50 [1]: 552 nM
α1B/α1A [1]: 125
IC50 [2]: 68800 nM
IC50 [3]: 2120 nM

COc1cc2c(c(OC)c1OC)CN1CCc3cc4c(cc3[C@@H]1C2)OCO4 [DC037010]
IC50 [1]: 238 nM
α1B/α1A [1]: 5.0
IC50 [2]: 1200 nM
IC50 [3]: 2560 nM

COc1cc2c(cc1OC)[C@@H]1Cc3cc(C)cc(C)c3CN1CC2 [DC037011]
IC50 [1]: 532 nM
α1B/α1A [1]: 64.4
IC50 [2]: 34300 nM
IC50 [3]: 2640 nM

COc1cc2c(cc1OC)CN1CCc3cc4c(cc3C1C2)OCO4 (centres unmarked) [DC037012]
IC50 [1]: 257 nM
α1B/α1A [1]: 29.2
IC50 [2]: 7520 nM
IC50 [3]: 242 nM

COc1cc2c(cc1O)[C@@H]1Cc3cc4c(cc3CN1CC2)OCO4 [DC037013]
IC50 [1]: 268 nM
α1B/α1A [1]: 16.1
IC50 [2]: 4310 nM
IC50 [3]: 263 nM

COc1cc2c(cc1OCc1ccccc1)CN1CCc3cc4c(cc3[C@@H]1C2)OCO4 [DC037014]
IC50 [1]: 303 nM
α1B/α1A [1]: 118.5
IC50 [2]: 35900 nM
IC50 [3]: 1340 nM

COc1cc2c(cc1OCC(F)F)C[C@H]1c3cc4c(cc3CCN1C2)OCO4 [DC037018]
IC50 ([4]; Tag-lite binding, HEK293 SNAP-α1A-AR): 0.95 nM
α1B/α1A ([4]; ratio of Tag-lite binding values): 51.2
IC50 [5]: 48.6 nM
IC50 [6]: 147 nM
Urethra inhibition rate (%) [6]: 61%
Aorta/Urethra [6]: 61
IC50 [7]: 2210 nM

CCOc1ccccc1OCCN[C@H](C)Cc1ccc(OC)c(S(N)(=O)=O)c1 [Tamsulosin, reference compound]
IC50 [2]: 3.08 nM
IC50 [3]: 0.18 nM
IC50 [5]: 0.16 nM
IC50 [6]: 0.47 nM
Urethra inhibition rate (%) [6]: 82%
Aorta/Urethra [6]: 0.53
IC50 [7]: 0.25 nM
